Test results published in paper PMC11357638 (Molecules, 2024).
Numbering of substitutions follows the chain as printed. Like-named read-outs stand apart in the source and are kept apart here. One block for each compound: values may come before it.

How the values were obtained:
TRPV3 = details: read-out: IC50, TRPV3 inhibition; cited from earlier work
[1] = biological target: T1, human TRPV3 (hTRPV3) channel (Homo sapiens, UniProt Q8NET8); assay: Whole-cell patch-clamp of hTRPV3 currents in transfected HEK293T cells; assay type: cell-based
T1 construct: expressed in transfected cells; host or cells: HEK293T
T1 sequence (Q8NET8 1-790): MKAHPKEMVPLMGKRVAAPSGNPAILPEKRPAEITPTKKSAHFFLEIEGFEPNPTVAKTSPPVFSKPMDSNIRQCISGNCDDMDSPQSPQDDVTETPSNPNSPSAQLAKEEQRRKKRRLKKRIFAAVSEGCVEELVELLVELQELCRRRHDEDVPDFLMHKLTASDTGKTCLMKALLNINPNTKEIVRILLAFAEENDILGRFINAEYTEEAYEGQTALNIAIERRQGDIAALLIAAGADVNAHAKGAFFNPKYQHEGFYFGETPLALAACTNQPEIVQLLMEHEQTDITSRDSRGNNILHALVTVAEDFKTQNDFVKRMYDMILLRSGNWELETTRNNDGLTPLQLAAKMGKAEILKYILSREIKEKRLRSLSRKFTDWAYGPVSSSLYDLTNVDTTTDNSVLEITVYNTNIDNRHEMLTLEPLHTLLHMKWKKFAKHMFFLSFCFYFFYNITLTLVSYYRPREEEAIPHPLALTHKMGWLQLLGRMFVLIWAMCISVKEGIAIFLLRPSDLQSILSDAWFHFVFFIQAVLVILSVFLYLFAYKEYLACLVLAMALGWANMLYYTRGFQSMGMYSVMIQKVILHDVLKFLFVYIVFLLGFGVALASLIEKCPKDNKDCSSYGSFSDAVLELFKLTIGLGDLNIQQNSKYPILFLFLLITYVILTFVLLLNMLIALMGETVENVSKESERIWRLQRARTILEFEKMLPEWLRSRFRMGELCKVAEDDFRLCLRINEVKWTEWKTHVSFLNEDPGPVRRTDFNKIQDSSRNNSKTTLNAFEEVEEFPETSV

hTRPV3 T636A mutant = biological target: T2, hTRPV3 T636A mutant (Homo sapiens, UniProt Q8NET8, T636A); assay: Whole-cell patch-clamp of hTRPV3 T636A mutant in HEK293T cells; assay type: cell-based
T2 construct: expressed in transfected cells; host or cells: HEK293T
T2 sequence (Q8NET8 1-790 T636A): T1 sequence (Q8NET8 1-790) with T636A

hTRPV3 single channel = biological target: T3, hTRPV3 single channel (Homo sapiens, UniProt Q8NET8); assay: Inside-out single-channel recording of hTRPV3; assay type: cell-based; details: −60 mV
T3 construct: expressed in transfected cells; host or cells: HEK293T
T3 sequence (Q8NET8 1-790): T1 sequence (Q8NET8 1-790)

hTRPV3 I637A mutant = biological target: T4, hTRPV3 I637A mutant (Homo sapiens, UniProt Q8NET8, I637A); assay: Whole-cell patch-clamp of hTRPV3 I637A mutant in HEK293T cells; assay type: cell-based; details: I637A hTRPV3, 50 μM 2-APB, +80 mV, Hill fit; read-out: IC50, inhibition of I637A mutant outward currents
T4 construct: expressed in transfected cells; host or cells: HEK293T
T4 sequence (Q8NET8 1-790 I637A): T1 sequence (Q8NET8 1-790) with I637A

[2] = agonist carvacrol at 300 μM alone

Compound: O=C(/C=C/c1ccc(O)c(O)c1)O[C@@H]1[C@@H](OC(=O)/C=C/c2ccc(O)c(O)c2)C[C@@](O)(C(=O)O)C[C@@H]1O [isochlorogenic acid B]
- IC50 (TRPV3): 0.9 ± 0.3 µM

Compound: forsythiaside B
- IC50 (TRPV3): 6.7 ± 0.7 µM

Compound: C[C@@H]1O[C@@H](O[C@@H]2[C@@H](O)[C@H](OCCc3ccc(O)c(O)c3)O[C@H](CO)[C@H]2OC(=O)/C=C/c2ccc(O)c(O)c2)[C@H](O)[C@H](O)[C@H]1O [verbascoside]
- IC50 (TRPV3): 14.1 ± 3.3 µM

Compound: O=C(/C=C/c1ccc(O)c(O)c1)OCCc1ccccc1 [CAPE, caffeic acid phenethyl ester]
- IC50 [1]: 277 ± 41.9 µM
- IC50 (hTRPV3 T636A mutant): 506 ± 57.3 µM

- open frequency (Freq) (hTRPV3 single channel; agonist 2-APB 50 μM alone): 75.05 ± 6.63 Hz
- single-channel conductance (hTRPV3 single channel; agonist 2-APB 50 μM alone): 161.6 ± 3.8 pS
- single-channel open probability (POPEN) (hTRPV3 single channel; agonist 2-APB 50 μM alone): 0.72 ± 0.06
Compound: NCCOB(c1ccccc1)c1ccccc1 [2-APB, 2-aminoethoxydiphenylborate]

- IC50 ([1]; WT hTRPV3 in HEK293T, whole-cell, activated by 50 μM 2-APB, at +80 mV, Hill fit, mean ± SD, read-out: IC50, inhibition of hTRPV3 currents): 410 ± 57.9 µM
- IC50 (hTRPV3 T636A mutant; T636A hTRPV3, 50 μM 2-APB, +80 mV, Hill fit, read-out: IC50, inhibition of T636A mutant outward currents): 417 ± 45.1 µM
- IC50 (hTRPV3 I637A mutant): 522 ± 43.8 µM
Compound: COC(=O)/C=C/c1ccc(O)c(O)c1 [CAMC, caffeic acid methyl caffeate]

Compound: O=C(/C=C/c1ccc(O)c(O)c1)O[C@@H]1C[C@](O)(C(=O)O)C[C@@H](OC(=O)/C=C/c2ccc(O)c(O)c2)[C@H]1O [isochlorogenic acid A]
- IC50 (TRPV3): 2.7 ± 1.3 µM

Compound: Cc1ccc(C(C)C)cc1O [carvacrol]
- open frequency (Freq) (hTRPV3 single channel; [2]): 53.55 ± 7.27 Hz
- single-channel conductance (hTRPV3 single channel; [2]): 179.4 ± 12.8 pS
- single-channel open probability (POPEN) (hTRPV3 single channel; [2]): 0.56 ± 0.05
